Test results reported in patent US20230023092A1, “TREATMENT OF DEPRESSION AND OTHER VARIOUS DISORDERS WITH PSILOCYBIN” (COMPASS […], priority 2019, published 2023).

Test system: healthy subjects
Test: Phase 1 study: adverse events (TEAEs, MedDRA coded)
Assay type: in vivo, human
Experimental: A Phase 1 randomized, double-blind, placebo-controlled study to evaluate the effect of psilocybin on cognitive and emotional processing as compared to placebo in healthy volunteers was conducted. The study investigated the short-term (Day 7) and long-term (Day 28) effects of moderate (10 mg) and high doses (25 mg) of psilocybin on key domains of cognition, such as episodic memory, attention, working and spatial memory, social cognition and elements of executive function, including cognitive flexibility.
Each subject was assigned 1 treatment bottle containing 5 capsules packaged in a double-blind fashion, depending on the randomized treatment arm, the bottle contained one of the following: • a. Psilocybin 10 mg: 2×5-mg oral psilocybin capsules plus 3×placebo capsules • b. Psilocybin 25 mg: 5×5-mg oral psilocybin capsules • c. Placebo: 5×placebo capsules
Each 5-mg oral psilocybin capsules comprised 5 mg crystalline psilocybin in the form or Polymorph A, 12.5 mg of SMCC 50, 79.5 mg of SMCC 90, 1 mg sodium starch glycolate, 1 mg colloidal silicon dioxide, and 1 mg sodium stearyl fumarate
Adverse events: Throughout the course of the study, all AEs were monitored and recorded. Each AE was classified according to the following criteria: • i. […] Moderate: The AE produces some impairment of functioning, but is not hazardous to the subject's health. • iii. Severe: The AE produces significant impairment of functioning or incapacitation and is a definite hazard to the subject's health.
Visit 3 (V3): Drug Administration (Day 0): The subject was asked to eat a light breakfast at least two hours prior to coming to the clinic for study drug administration. On Day 0 (V3), the subject underwent the SSTS, had vital signs obtained, medications reviewed, AEs recorded and eligibility reviewed prior to being randomized to study drug. The study drug was administered to up to six subjects simultaneously in individual beds separated by a curtain. The subject was invited to put on eyeshades and headphones, lie down and listen to calming music for the rest of the session (six hours). The subject was supported 1:1 with a chaperone and supervised by the study psychiatrist and lead therapist.
During administration of psilocybin, each subject received one-on-one support from a trained assisting therapist and each dosing session was supervised by a study psychiatrist and a lead therapist. The study drug was administered simultaneously to up to six participants as a single 5-capsule oral dose (10 mg psilocybin: 2×5-mg psilocybin capsules plus 3×placebo capsules; 25 mg psilocybin: 5×5-mg psilocybin capsules; placebo: 5×placebo capsules). Twenty-five dosing sessions were completed, with up to six participants dosed simultaneously per session. Each session lasted approximately 6 to 8 hours with subjects encouraged to relax and engage in introspection for the duration. After the acute effects of the study drug had subsided, subjects were discharged.

For CN(C)CCc1c[nH]c2cccc(OP(=O)(O)O)c12 [Psilocybin, psilocybin], the “Hypoaesthesia, worst severity Moderate, N (%)” value (10 mg oral) was 0, the “Hypoaesthesia, worst severity Severe, Events” value (10 mg oral) was 0 and the “Hypoaesthesia, worst severity Severe, N (%)” value (10 mg oral) was 0. For the same compound, the “Illusion, Events” value (10 mg oral) was 25, the “Illusion, N (%)” value (10 mg oral) was 19 (63.3) and the “Illusion, worst severity Mild, Events” value (10 mg oral) was 7. The “Illusion, worst severity Mild, N (%)” value (10 mg oral) was 7 (23.3), the “Illusion, worst severity Moderate, Events” value (10 mg oral) was 16 and the “Illusion, worst severity Moderate, N (%)” value (10 mg oral) was 12 (40.0). The “Illusion, worst severity Severe, Events” value (10 mg oral) was 0, the “Illusion, worst severity Severe, N (%)” value (10 mg oral) was 0 and the “Infections and infestations, Events” value (10 mg oral) was 4. For the same compound, the “Infections and infestations, N (%)” value (10 mg oral) was 4 (13.3), the “Infections and infestations, worst severity Mild, Events” value (10 mg oral) was 2 and the “Infections and infestations, worst severity Mild, N (%)” value (10 mg oral) was 2 (6.7). For the same compound, the “Infections and infestations, worst severity Moderate, Events” value (10 mg oral) was 2, the “Infections and infestations, worst severity Moderate, N (%)” value (10 mg oral) was 2 (6.7) and the “Infections and infestations, worst severity Severe, Events” value (10 mg oral) was 0. The “Infections and infestations, worst severity Severe, N (%)” value (10 mg oral) was 0, the “Investigations, Events” value (10 mg oral) was 2 and the “Investigations, N (%)” value (10 mg oral) was 2 (6.7). The “Investigations, worst severity Mild, Events” value (10 mg oral) was 2, the “Investigations, worst severity Mild, N (%)” value (10 mg oral) was 2 (6.7) and the “Investigations, worst severity Moderate, Events” value (10 mg oral) was 0. For the same compound, the “Investigations, worst severity Moderate, N (%)” value (10 mg oral) was 0, the “Investigations, worst severity Severe, Events” value (10 mg oral) was 0 and the “Investigations, worst severity Severe, N (%)” value (10 mg oral) was 0. For the same compound, the “Memory impairment, Events” value (10 mg oral) was 1, the “Memory impairment, N (%)” value (10 mg oral) was 1 (3.3) and the “Mental fatigue, Events” value (10 mg oral) was 0. For the same compound, the “Mental fatigue, N (%)” value (10 mg oral) was 0, the “Mood altered, Events” value (10 mg oral) was 23 and the “Mood altered, N (%)” value (10 mg oral) was 13 (43.3). For the same compound, the “Mood altered, worst severity Mild, Events” value (10 mg oral) was 2, the “Mood altered, worst severity Mild, N (%)” value (10 mg oral) was 2 (6.7) and the “Mood altered, worst severity Moderate, Events” value (10 mg oral) was 8. For the same compound, the “Mood altered, worst severity Moderate, N (%)” value (10 mg oral) was 5 (16.7), the “Mood altered, worst severity Severe, Events” value (10 mg oral) was 9 and the “Mood altered, worst severity Severe, N (%)” value (10 mg oral) was 6 (20.0). The “Musculoskeletal and connective tissue disorders, Events” value (10 mg oral) was 1, the “Musculoskeletal and connective tissue disorders, N (%)” value (10 mg oral) was 1 (3.3) and the “Musculoskeletal and connective tissue disorders, worst severity Mild, Events” value (10 mg oral) was 0. For the same compound, the “Musculoskeletal and connective tissue disorders, worst severity Mild, N (%)” value (10 mg oral) was 0, the “Musculoskeletal and connective tissue disorders, worst severity Moderate, Events” value (10 mg oral) was 1 and the “Musculoskeletal and connective tissue disorders, worst severity Moderate, N (%)” value (10 mg oral) was 1 (3.3). For the same compound, the “Musculoskeletal and connective tissue disorders, worst severity Severe, Events” value (10 mg oral) was 0, the “Musculoskeletal and connective tissue disorders, worst severity Severe, N (%)” value (10 mg oral) was 0 and the “Nausea, Events” value (10 mg oral) was 1. The “Nausea, N (%)” value (10 mg oral) was 1 (3.3), the “Nervous system disorders, Events” value (10 mg oral) was 35 and the “Nervous system disorders, N (%)” value (10 mg oral) was 21 (70.0). The “Nervous system disorders, worst severity Mild, Events” value (10 mg oral) was 23, the “Nervous system disorders, worst severity Mild, N (%)” value (10 mg oral) was 15 (50.0) and the “Nervous system disorders, worst severity Moderate, Events” value (10 mg oral) was 8. For the same compound, the “Nervous system disorders, worst severity Moderate, N (%)” value (10 mg oral) was 6 (20.0), the “Nervous system disorders, worst severity Severe, Events” value (10 mg oral) was 0 and the “Nervous system disorders, worst severity Severe, N (%)” value (10 mg oral) was 0. For the same compound, the “Paraesthesia, Events” value (10 mg oral) was 4, the “Paraesthesia, N (%)” value (10 mg oral) was 4 (13.3) and the “Paraesthesia, worst severity Mild, Events” value (10 mg oral) was 4. For the same compound, the “Paraesthesia, worst severity Mild, N (%)” value (10 mg oral) was 4 (13.3), the “Paraesthesia, worst severity Moderate, Events” value (10 mg oral) was 0 and the “Paraesthesia, worst severity Moderate, N (%)” value (10 mg oral) was 0. The “Paraesthesia, worst severity Severe, Events” value (10 mg oral) was 0, the “Paraesthesia, worst severity Severe, N (%)” value (10 mg oral) was 0 and the “Psychiatric disorders, Events” value (10 mg oral) was 121. For the same compound, the “Psychiatric disorders, N (%)” value (10 mg oral) was 27 (90.0), the “Psychiatric disorders, worst severity Mild, Events” value (10 mg oral) was 6 and the “Psychiatric disorders, worst severity Mild, N (%)” value (10 mg oral) was 4 (13.3). The “Psychiatric disorders, worst severity Moderate, Events” value (10 mg oral) was 29, the “Psychiatric disorders, worst severity Moderate, N (%)” value (10 mg oral) was 13 (43.3) and the “Psychiatric disorders, worst severity Severe, Events” value (10 mg oral) was 21. The “Psychiatric disorders, worst severity Severe, N (%)” value (10 mg oral) was 10 (33.3), the “Psychomotor skills impaired, Events” value (10 mg oral) was 1 and the “Psychomotor skills impaired, N (%)” value (10 mg oral) was 1 (3.3). For the same compound, the “Respiratory, thoracic and mediastinal disorders, Events” value (10 mg oral) was 0, the “Respiratory, thoracic and mediastinal disorders, N (%)” value (10 mg oral) was 0 and the “Selected TEAE: Nervous system disorders, Events” value (10 mg oral) was 2. The “Selected TEAE: Nervous system disorders, N (%)” value (10 mg oral) was 2 (6.7), the “Selected TEAE: Psychiatric disorders, Events” value (10 mg oral) was 104 and the “Selected TEAE: Psychiatric disorders, N (%)” value (10 mg oral) was 27 (90.0). For the same compound, the “Somatic hallucination, Events” value (10 mg oral) was 8, the “Somatic hallucination, N (%)” value (10 mg oral) was 8 (26.7) and the “Somatic hallucination, worst severity Mild, Events” value (10 mg oral) was 1. For the same compound, the “Somatic hallucination, worst severity Mild, N (%)” value (10 mg oral) was 1 (3.3), the “Somatic hallucination, worst severity Moderate, Events” value (10 mg oral) was 7 and the “Somatic hallucination, worst severity Moderate, N (%)” value (10 mg oral) was 7 (23.3). The “Somatic hallucination, worst severity Severe, Events” value (10 mg oral) was 0, the “Somatic hallucination, worst severity Severe, N (%)” value (10 mg oral) was 0 and the “Substance-induced psychotic disorder, Events” value (10 mg oral) was 0. The “Substance-induced psychotic disorder, N (%)” value (10 mg oral) was 0, the “Tension headache, Events” value (10 mg oral) was 3 and the “Tension headache, N (%)” value (10 mg oral) was 3 (10.0). The “Tension headache, worst severity Mild, Events” value (10 mg oral) was 1, the “Tension headache, worst severity Mild, N (%)” value (10 mg oral) was 1 (3.3) and the “Tension headache, worst severity Moderate, Events” value (10 mg oral) was 2. The “Tension headache, worst severity Moderate, N (%)” value (10 mg oral) was 2 (6.7), the “Tension headache, worst severity Severe, Events” value (10 mg oral) was 0 and the “Tension headache, worst severity Severe, N (%)” value (10 mg oral) was 0. For the same compound, the “Time perception altered, Events” value (10 mg oral) was 2, the “Time perception altered, N (%)” value (10 mg oral) was 2 (6.7) and the “Time perception altered, worst severity Mild, Events” value (10 mg oral) was 1. For the same compound, the “Time perception altered, worst severity Mild, N (%)” value (10 mg oral) was 1 (3.3), the “Time perception altered, worst severity Moderate, Events” value (10 mg oral) was 1 and the “Time perception altered, worst severity Moderate, N (%)” value (10 mg oral) was 1 (3.3). The “Time perception altered, worst severity Severe, Events” value (10 mg oral) was 0, the “Time perception altered, worst severity Severe, N (%)” value (10 mg oral) was 0 and the “Adverse events reported by % of subjects” value (10 mg oral, 12-week study) was 96.7%. The “Reported 'Mood altered' events: Being less judgmental (number)” value (10 mg psilocybin (n = 30)) was 1, the “Reported 'Mood altered' events: Calm (number)” value (10 mg psilocybin (n = 30)) was 0 and the “Reported 'Mood altered' events: Clarity of thought (number)” value (10 mg psilocybin (n = 30)) was 0. For the same compound, the “Reported 'Mood altered' events: Contemplative state (number)” value (10 mg psilocybin (n = 30)) was 1, the “Reported 'Mood altered' events: Feeling more moody/sensitive (number)” value (10 mg psilocybin (n = 30)) was 1 and the “Reported 'Mood altered' events: Feeling of adrenaline release (number)” value (10 mg psilocybin (n = 30)) was 0. The “Reported 'Mood altered' events: Feeling rested (number)” value (10 mg psilocybin (n = 30)) was 1, the “Reported 'Mood altered' events: Increased compassion (number)” value (10 mg psilocybin (n = 30)) was 0 and the “Reported 'Mood altered' events: Increased creativity (number)” value (10 mg psilocybin (n = 30)) was 0. For the same compound, the “Reported 'Mood altered' events: Increased empathy (number)” value (10 mg psilocybin (n = 30)) was 2, the “Reported 'Mood altered' events: Increased sense of connectedness (number)” value (10 mg psilocybin (n = 30)) was 0 and the “Reported 'Mood altered' events: Increased wit (number)” value (10 mg psilocybin (n = 30)) was 1. The “Reported 'Mood altered' events: Introspection (number)” value (10 mg psilocybin (n = 30)) was 5, the “Reported 'Mood altered' events: Laughter (number)” value (10 mg psilocybin (n = 30)) was 1 and the “Reported 'Mood altered' events: More socially upbeat (number)” value (10 mg psilocybin (n = 30)) was 0. The “Reported 'Mood altered' events: Negative mood (number)” value (10 mg psilocybin (n = 30)) was 0, the “Reported 'Mood altered' events: Reflections (number)” value (10 mg psilocybin (n = 30)) was 3 and the “Reported 'Mood altered' events: Saw themselves from a new perspective (number)” value (10 mg psilocybin (n = 30)) was 0. The “Reported 'Mood altered' events: Sense of oneness (number)” value (10 mg psilocybin (n = 30)) was 4, the “Reported 'Mood altered' events: Sense of openness (number)” value (10 mg psilocybin (n = 30)) was 1 and the “Reported 'Mood altered' events: Unusual appreciation of music (number)” value (10 mg psilocybin (n = 30)) was 0. The “AEs deemed potentially related to study treatment, % of AEs of the arm” value (25 mg oral) was 95.9% and the “Affect lability, Events” value (25 mg oral) was 3.
